The results in this text go back to ChEMBL document CHEMBL1250454, “Oral oxytocin antagonists” (J Med Chem, 2010).

Values after ≈ are worked out from the molar mass of the structure shown.

The target of series [1] is T1, Vasopressin V2 receptor (Homo sapiens, UniProt P30518). The series can be described thus: Displacement of [3H]vasopressin from human vasopressin V2 receptor.
For series [2], the species on record is Homo sapiens. Nature of the series: Selectivity ratio of Ki for human oxytocin receptor Ki for human vasopressin V2 receptor.
The species entered for series [3] is Homo sapiens. Nature of the series: Selectivity ratio of Ki for human oxytocin receptor Ki for human vasopressin V1a receptor.
The species entered for series [4] is Homo sapiens. Nature of the series: Selectivity ratio of Ki for human oxytocin receptor Ki for human vasopressin V1b receptor.
Series [5] deals with T2, Vasopressin V1a receptor (Homo sapiens, UniProt P37288). The series can be described thus: Displacement of [3H]vasopressin from human vasopressin V1a receptor. (In general: Loss of bound radioactivity is the signal in a displacement assay; it reports binding, not function.)
Target sequence in this assay (P37288 whole entry): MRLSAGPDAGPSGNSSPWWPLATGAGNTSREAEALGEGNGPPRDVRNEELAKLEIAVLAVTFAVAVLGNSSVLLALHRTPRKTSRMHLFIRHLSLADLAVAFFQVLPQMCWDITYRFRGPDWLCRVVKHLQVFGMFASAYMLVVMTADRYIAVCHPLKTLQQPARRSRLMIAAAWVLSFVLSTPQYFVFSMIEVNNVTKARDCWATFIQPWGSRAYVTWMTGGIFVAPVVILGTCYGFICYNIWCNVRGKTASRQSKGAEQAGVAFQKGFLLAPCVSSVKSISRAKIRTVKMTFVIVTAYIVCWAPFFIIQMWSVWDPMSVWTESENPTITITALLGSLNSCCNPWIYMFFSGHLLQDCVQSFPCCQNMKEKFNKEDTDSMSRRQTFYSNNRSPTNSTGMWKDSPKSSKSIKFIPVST
Series [6] deals with T3, Vasopressin V1b receptor (Homo sapiens, UniProt P47901).
T3 sequence (P47901 whole entry): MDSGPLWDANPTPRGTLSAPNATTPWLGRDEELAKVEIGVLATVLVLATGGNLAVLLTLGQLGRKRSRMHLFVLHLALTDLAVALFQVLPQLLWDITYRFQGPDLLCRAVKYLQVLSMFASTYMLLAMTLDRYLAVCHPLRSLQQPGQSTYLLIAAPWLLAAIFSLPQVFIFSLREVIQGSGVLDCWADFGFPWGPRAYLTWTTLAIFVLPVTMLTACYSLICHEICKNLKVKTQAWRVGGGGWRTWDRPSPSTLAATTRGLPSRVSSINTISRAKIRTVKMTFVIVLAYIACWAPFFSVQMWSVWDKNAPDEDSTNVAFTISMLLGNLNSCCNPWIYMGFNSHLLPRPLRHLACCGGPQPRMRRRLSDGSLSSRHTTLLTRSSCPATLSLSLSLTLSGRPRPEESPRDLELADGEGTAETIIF
The series can be described thus: Displacement of [3H]vasopressin from human vasopressin V1b receptor.

The target in series [7] is T4, Oxytocin receptor (Homo sapiens, UniProt P30559).
T4 sequence (P30559 whole entry): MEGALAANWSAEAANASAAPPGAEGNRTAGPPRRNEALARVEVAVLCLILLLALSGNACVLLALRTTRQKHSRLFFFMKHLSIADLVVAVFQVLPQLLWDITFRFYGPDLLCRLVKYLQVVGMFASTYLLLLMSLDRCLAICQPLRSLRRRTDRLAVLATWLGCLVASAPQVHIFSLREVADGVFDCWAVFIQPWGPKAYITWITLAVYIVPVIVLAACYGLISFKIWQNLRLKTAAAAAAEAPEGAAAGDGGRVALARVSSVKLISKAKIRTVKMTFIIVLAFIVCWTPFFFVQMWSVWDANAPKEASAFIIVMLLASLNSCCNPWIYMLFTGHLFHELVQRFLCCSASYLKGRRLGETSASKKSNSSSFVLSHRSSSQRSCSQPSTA
The series can be described thus: Displacement of [3H]-oxytocin from human oxytocin receptor expressed in CHO cells. Type of series: cell-based.

Series [8] concerns the target T2, Vasopressin V1a receptor. Nature of the series: Displacement of [3H]vasopressin from human vasopressin V1a receptor expressed in CHO cells at 10 uM. Type of series: cell-based.
Series [9] in a line: Oral bioavailability in pregnant rat. Type of series: ADME, organism-based. The following applies: female, in vivo.
Series [10] concerns Rattus norvegicus. The series can be described thus: Inhibition of oxytocin-induced uterine contraction in po dosed rat. The format is functional.
Series [11] in a line: Oral bioavailability in rat. Type of series: ADME, organism-based. To be noted: in vivo.
In series [12] the target is T1, Vasopressin V2 receptor. The series can be described thus: Displacement of [3H]vasopressin from human vasopressin V2 receptor expressed in CHO cells. The format is cell-based.
The target in series [13] is T4, Oxytocin receptor. The series can be described thus: Displacement of [3H]-oxytocin from oxytocin receptor in human uterus tissue. Type of series: tissue-based.
For series [14], the system named is Rattus norvegicus. Nature of the series: Inhibition of oxytocin-induced uterine contraction in iv dosed rat. Type of series: functional.
The nature of series [15]: Half life in pregnant rat. The following applies: female, in vivo. Type of series: ADME, organism-based.
Series [16] deals with T5, Oxytocin receptor (Rattus norvegicus, UniProt P70536).
T5 sequence (P70536 whole entry): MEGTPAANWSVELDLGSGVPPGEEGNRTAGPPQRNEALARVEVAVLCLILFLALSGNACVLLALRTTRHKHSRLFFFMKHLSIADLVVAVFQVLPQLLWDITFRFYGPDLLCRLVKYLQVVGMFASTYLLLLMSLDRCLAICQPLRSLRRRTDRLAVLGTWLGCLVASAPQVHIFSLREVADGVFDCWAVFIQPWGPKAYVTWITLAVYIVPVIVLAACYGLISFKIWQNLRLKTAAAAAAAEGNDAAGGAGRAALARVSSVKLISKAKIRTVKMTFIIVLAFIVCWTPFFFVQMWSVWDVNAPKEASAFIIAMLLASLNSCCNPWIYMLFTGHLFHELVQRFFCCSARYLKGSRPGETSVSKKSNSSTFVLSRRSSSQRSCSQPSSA
Nature of the series: Antagonist activity at oxytocin receptor in rat uterine strips assessed as inhibition of oxytocin-induced contraction. The following applies: read-out: pA2 (converted). The format is functional.

The target of series [17] is T4, Oxytocin receptor. Nature of the series: Displacement of [3H]-oxytocin from human oxytocin receptor expressed in HEK293-EBNA cells. Type of series: cell-based.
Series [18] addresses T2, Vasopressin V1a receptor. The series can be described thus: Displacement of [3H]vasopressin from vasopressin V1a receptor in human liver tissue.
Target sequence in this assay (P37288 whole entry): as the sequence (P37288 whole entry) above
The target of series [19] is T5, Oxytocin receptor. Nature of the series: Displacement of [3H]-oxytocin from oxytocin receptor in rat uterus tissue. The format is tissue-based.
A short description of series [20]: Half life in rhesus monkey. To be noted: in vivo. The format is ADME, organism-based, Macaca mulatta.
Series [21] in a line: Aqueous solubility of the compound at pH 5. The format is physicochemical.
The target of series [22] is Vasopressin V1a receptor (Rattus norvegicus, UniProt P30560). Nature of the series: Displacement of [3H]vasopressin from vasopressin V1a receptor in rat liver tissue.
Vasopressin V1a receptor (Rattus norvegicus, UniProt P30560), sequence (P30560 whole entry): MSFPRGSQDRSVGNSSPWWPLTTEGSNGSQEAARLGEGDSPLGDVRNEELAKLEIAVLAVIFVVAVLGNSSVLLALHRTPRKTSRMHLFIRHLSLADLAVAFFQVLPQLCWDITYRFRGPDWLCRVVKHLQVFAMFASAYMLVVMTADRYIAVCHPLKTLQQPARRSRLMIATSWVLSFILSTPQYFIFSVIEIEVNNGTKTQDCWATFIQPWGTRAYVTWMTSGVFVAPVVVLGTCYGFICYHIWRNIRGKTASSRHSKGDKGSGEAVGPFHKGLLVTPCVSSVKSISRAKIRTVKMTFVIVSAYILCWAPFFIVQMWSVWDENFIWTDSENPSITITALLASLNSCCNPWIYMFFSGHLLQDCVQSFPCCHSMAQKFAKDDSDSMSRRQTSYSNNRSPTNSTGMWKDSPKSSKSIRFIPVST
The subject of series [23] is Rattus norvegicus. Nature of the series: Inhibition of oxytocin-induced uterine contraction in intraduodenally dosed rat. The format is functional.
Series [24] deals with T1, Vasopressin V2 receptor. The series can be described thus: Displacement of [3H]vasopressin from vasopressin V2 receptor in human kidney tissue.
Series [25] in a line: Oral bioavailability in chimpanzee. Type of series: ADME, organism-based, Pan troglodytes. The following applies: in vivo.
Series [26] addresses Vasopressin V2 receptor (Rattus norvegicus, UniProt Q00788). The series can be described thus: Displacement of [3H]vasopressin from vasopressin V2 receptor in rat kidney tissue.
Series [27] in a line: Oral bioavailability in rhesus monkey. The format is ADME, organism-based, Macaca mulatta. The following applies: in vivo.
Series [28] concerns the target T3, Vasopressin V1b receptor. The series can be described thus: Displacement of [3H]vasopressin from human vasopressin V1b receptor expressed in CHO cells. The format is cell-based.

T1 sequence (P30518 whole entry): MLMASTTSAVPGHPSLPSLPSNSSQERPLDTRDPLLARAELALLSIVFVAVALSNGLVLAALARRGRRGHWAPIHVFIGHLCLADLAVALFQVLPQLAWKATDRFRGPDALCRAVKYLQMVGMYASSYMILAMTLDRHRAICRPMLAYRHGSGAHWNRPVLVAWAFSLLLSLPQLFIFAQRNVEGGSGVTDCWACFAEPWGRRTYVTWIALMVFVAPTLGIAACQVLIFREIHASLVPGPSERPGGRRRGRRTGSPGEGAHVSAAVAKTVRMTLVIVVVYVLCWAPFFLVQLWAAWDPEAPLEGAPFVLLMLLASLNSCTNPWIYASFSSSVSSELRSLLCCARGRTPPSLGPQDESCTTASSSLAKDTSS
Vasopressin V2 receptor (Rattus norvegicus, UniProt Q00788), sequence (Q00788 whole entry): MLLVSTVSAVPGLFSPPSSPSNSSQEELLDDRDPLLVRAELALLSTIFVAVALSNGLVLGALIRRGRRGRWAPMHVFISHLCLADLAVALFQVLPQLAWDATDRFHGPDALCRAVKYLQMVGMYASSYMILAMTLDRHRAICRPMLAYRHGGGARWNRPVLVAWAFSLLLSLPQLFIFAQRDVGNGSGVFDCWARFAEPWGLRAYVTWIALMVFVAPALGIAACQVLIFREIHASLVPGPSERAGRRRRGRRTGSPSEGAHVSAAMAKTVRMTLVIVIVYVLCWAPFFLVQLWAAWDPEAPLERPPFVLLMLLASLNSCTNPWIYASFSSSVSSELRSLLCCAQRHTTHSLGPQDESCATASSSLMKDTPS

With `CC(C)C[C@@H]1C(=O)N[C@H](C2Cc3ccccc3C2)C(=O)N1[C@@H](C(=O)NC(C)C)c1ccc(F)cc1`, the Ki is 1260 nM at Vasopressin V2 receptor [1], above 6310 nM at Vasopressin V1a receptor [5] and above 6310 nM at Vasopressin V1b receptor [6]. The figures for the Ratio Ki in the series filed under Homo sapiens [2], in the series filed under Homo sapiens [3] and in the series filed under Homo sapiens [4] were above 300, above 1500 and above 1500, respectively.

`CC(C)C[C@@H]1C(=O)N[C@H](C2Cc3ccccc3C2)C(=O)N1[C@@H](C(=O)NC(C)C)c1ccc(N(C)C)cc1`: the Ki at Vasopressin V2 receptor [1] was above 79400 nM; at Vasopressin V1a receptor [5] it was above 39800 nM; at Vasopressin V1b receptor [6], above 50100 nM.

Regarding `CO/N=C1\C[C@@H](C(=O)NCC(O)c2ccccc2)N(C(=O)c2ccc(-c3ccccc3)cc2)C1` (some centres undefined), the IC50 at Oxytocin receptor [7] worked out at 260 nM. The compound also returned an inhibition on Vasopressin V1a receptor [8] of 68%.

Regarding `CO/N=C1/C[C@@H](C(=O)NC[C@@H](O)c2ccccc2)N(C(=O)c2ccc(-c3ccccc3C)cc2)C1`, on Oxytocin receptor [7], the IC50 was 28 nM. The bioavailability in [9] and in [11] was 49% each time. Also, the ED50 in the series on Rattus norvegicus [10] stood at 89 mg/kg; in the series with Rattus norvegicus [14] (Rattus norvegicus, iv), 3.5 mg/kg. For the same compound, the inhibition constant Ki at Vasopressin V2 receptor [12] was above 10000 nM; at Oxytocin receptor [13] it was 28 nM. The Ratio Ki in the series filed under Homo sapiens [2] is 350; in the series filed under Homo sapiens [3], 6. In series [15], this compound gave a half-life of 2.8 h. The Kb on Oxytocin receptor [16] is 15.8 nM.

For the compound `CO/N=C1/C[C@H](c2nc(C)no2)N(C(=O)c2ccc(-c3ccccc3C)cc2)C1`, the values for the inhibition constant Ki on Oxytocin receptor [17] and at Vasopressin V1a receptor [8] were 50 nM and 60 nM, respectively.

Regarding `CC(C)C[C@@H]1C(=O)N[C@H](C2Cc3ccccc3C2)C(=O)N1[C@@H](C(=O)NC(C)C)c1ccc(F)cc1F`, the Ki at Vasopressin V1a receptor [5] was 6310 nM; at Vasopressin V1b receptor [6] it was above 6310 nM.

Turning to `COc1cc(OC2CCN(Cc3ccc[n+]([O-])c3C)CC2)ccc1C(=O)N1CCC(N2C(=O)OCc3ccccc32)CC1`, the Ki amounted to 3200 nM on Vasopressin V1a receptor [18]; 14 nM at Oxytocin receptor [19]; 4.9 nM at Oxytocin receptor [13]; 0.76 nM on Vasopressin V1a receptor [22]; 28000 nM at Vasopressin V2 receptor [24]; 9700 nM on Vasopressin V2 receptor [26]. Besides, the bioavailability in series [11] turned out to be 80%; in [25] it was 90%; in [27] it was 36%. The half-life in series [20] is 2 h. In series [21], the concentration in solution (solubility) came to 10000 µg/mL (≈ 17 mM). The values for the Ratio Ki in the series filed under Homo sapiens [2] and in the series listed under Homo sapiens [3] were above 5700 and 650, respectively. Moreover, the values for the AD50 with Rattus norvegicus [23] and in the series on Rattus norvegicus [14] were 2.5 mg/kg and 0.78 mg/kg, respectively.

On to `COc1ccc(-n2c(C)nnc2-c2ccc(-c3ccccc3OC)cc2)cn1`, for which the Ki is 500 nM at Vasopressin V2 receptor [12], 56 nM at Oxytocin receptor [17], 525 nM at Vasopressin V1a receptor [8] and above 10000 nM on Vasopressin V1b receptor [28].

Regarding `O=C(Cn1cc(C(F)(F)F)ccc1=O)NCc1cc2cc(C(=O)N3CCC(N4C(=O)OCc5ccccc54)CC3)ccc2o1`, the results for the Ratio Ki in the series listed under Homo sapiens [2] and in the series filed under Homo sapiens [3] were above 1500 and 630, respectively. This compound also showed an inhibitory constant (Ki) at Vasopressin V2 receptor [24] above 3000 nM. For the same compound, the bioavailability in [25] came to 51%.

Consider `CC1(C)[C@@H]2CC[C@@]1(CS(=O)(=O)N1CCC3(C=Cc4ccccc43)CC1)[C@@](O)(CC(=O)O)C2`, for which the Ki came to 1600 nM on Vasopressin V1a receptor [18]; 370 nM on Oxytocin receptor [19]; 530 nM on Oxytocin receptor [13]; 26000 nM on Vasopressin V1a receptor [22]; 5600 nM on Vasopressin V2 receptor [24]; 29000 nM at Vasopressin V2 receptor [26]. Also, the results for the Ratio Ki in the series filed under Homo sapiens [2] and in the series listed under Homo sapiens [3] were 11 and 3, respectively. For the same compound, the figures for the AD50 in the series with Rattus norvegicus [23] and in the series with Rattus norvegicus [14] were 30 mg/kg and 10 mg/kg, respectively.

For orientation: Ki means the equilibrium dissociation constant of an inhibitor or competing ligand from its target. Broadly, the IC50 is the concentration that gives 50% inhibition. The inhibition is the drop in the measured response relative to a control, in per cent. The bioavailability is the share of a dose that reaches the circulation, judged against a reference dose that is usually intravenous. Usually ED50 stands for the dose that gives a 50% effect, or the effect in half of the subjects. Broadly, the half-life is the time in which the quantity being followed falls by half. A word on the solubility: it is the dissolved amount per volume that the medium holds.
